Measurements published in US20030144346A1, “Methods and compositions for regulation of 5-alpha reductase activity” (priority 1997, published 2003).
Blank lines part the entries; values can stand above or below the compound they belong to.

Tests used:
[1] = molecular target: T1, type 2 human 5α-reductase (HRED2) (Homo sapiens, UniProt P31213); experiment: Whole cell assay of 5α-reductase, type 2 isoenzyme; assay type: cell-based; design: expressed in transfected cells; host or cells: rat 1A cells infected with pMV7 retrovirus; conditions: for inhibition at 100 µM / HRED2 % Inhibition @ 100 μM: Table 7; for IC50: Table 7, read-out: HCRED2 IC50;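 as to all read-outs here: intact rat 1A cells genetically modified to carry human type 2 5α-reductase served as the enzyme source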
T1 sequence (P31213 1-254): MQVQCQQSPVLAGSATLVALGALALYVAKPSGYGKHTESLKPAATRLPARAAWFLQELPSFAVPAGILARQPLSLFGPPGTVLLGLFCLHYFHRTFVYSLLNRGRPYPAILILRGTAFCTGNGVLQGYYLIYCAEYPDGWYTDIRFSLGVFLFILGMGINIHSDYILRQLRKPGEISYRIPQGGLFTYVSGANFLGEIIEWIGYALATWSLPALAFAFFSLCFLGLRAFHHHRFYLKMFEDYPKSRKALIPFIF

[2] = molecular target: T1, type 2 human 5α-reductase (HRED2); experiment: Cell free assay of 5α-reductase, microsomes of rat 1A cells expressing type 2 isoenzyme (HRED2); assay type: biochemical; design: expressed in transfected cells; host or cells: rat 1A cells infected with pMV7 retrovirus; microsomes;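 also: labeled testosterone and its product dihydrotestosterone measured in microsomal reaction extracts via thin layer chromatography plus radioanalytic scanning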
[3] = molecular target: T2, type 1 human 5α-reductase (HRED1) (Homo sapiens, UniProt P18405); experiment: Whole cell assay of 5α-reductase, type 1 isoenzyme; assay type: cell-based; design: expressed in transfected cells; host or cells: rat 1A cells infected with pMV7 retrovirus;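 also: intact rat 1A cells engineered to express the human type 1 5α-reductase isozyme serve as the enzyme source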
T2 sequence (P18405 1-259): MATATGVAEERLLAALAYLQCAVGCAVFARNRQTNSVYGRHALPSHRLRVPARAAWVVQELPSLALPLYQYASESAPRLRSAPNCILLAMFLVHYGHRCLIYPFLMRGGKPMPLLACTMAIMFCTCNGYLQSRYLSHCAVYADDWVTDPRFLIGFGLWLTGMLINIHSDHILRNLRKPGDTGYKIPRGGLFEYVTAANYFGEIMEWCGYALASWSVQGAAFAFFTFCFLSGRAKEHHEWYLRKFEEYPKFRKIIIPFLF

[4] = molecular target: T2, type 1 human 5α-reductase (HRED1); experiment: Cell free assay of 5α-reductase, microsomes of rat 1A cells expressing type 1 isoenzyme (HRED1); assay type: biochemical; design: expressed in transfected cells; host or cells: rat 1A cells infected with pMV7 retrovirus; microsomes;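 also: microsomes from rat 1A cells expressing human type 1 5α-reductase, conversion of radiolabeled testosterone to dihydrotestosterone quantified by thin layer chromatography with radioanalytic scanning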
[5] = whole cell assay, Table 7, read-out: HCRED1 IC50
[6] = read-out: HRED2 % Inhibition @ 100 μM
[7] = read-out: HRED1 % Inhibition @ 100 μM
[8] = read-out: HRED2 % Inhibition @ 100 uM
[9] = read-out: HRED1 % Inhibition @ 100 uM
[10] = 100 uM, cell free assay, Table 1
[11] = cell free assay, Table 2 catechols, read-out: HRED2 IC50
[12] = cell free assay, Table 2 catechols, read-out: HRED1 IC50

SMILES: O=C1c2ccccc2C(=O)c2c1cc(S(=O)(=O)[O-])c(O)c2O.[Na+] [Alizarin Red 5, Alizarin Red S]
IC50 [1]: > 100 µM
IC50 ([2]; cell free assay, Table 4 quinones, read-out: HRED2 IC50): > 100 µM
HRED1 % Inhibition @ 100 μM ([3]; whole cell assay, Table 7): 28%

SMILES: O=C1c2ccccc2C(=O)c2c1ccc(O)c2O [Alizarin]
inhibition at 100 µM [1]: 27%
IC50 [1]: > 100 µM
inhibition at 100 µM [2, 6]: 54%
inhibition at 100 µM ([3]; whole cell assay, Table 7): 75%
inhibitory activity in the whole cell assay, type 1 isoenzyme, in words ([3]; whole cell assay): very effective inhibitor
IC50 [3, 5]: 6 µM
IC50 ([4]; cell free assay, Table 4 quinones, read-out: HRED1 IC50): 3 µM
inhibitory activity against type 1 isoenzyme, in words ([4]; cell-free assay): very effective inhibitor
inhibition at 100 µM [4, 7]: 95%

SMILES: Oc1ccc2c(O)c3ccccc3cc2c1O [Anthrarobin]
inhibition at 100 µM [1]: 31%
IC50 [1]: > 100 µM
IC50 [2]: 50 µM
inhibition at 100 µM [2, 8]: 97%
inhibition at 100 µM [2, 6]: 97%
IC50 ([2]; read-out: HRED2 IC50, cell free assay, Table 4 quinones): 50 µM
IC50 [3]: 6 µM
inhibition at 100 µM ([3]; whole cell assay, Table 7): 91%
inhibitory activity in the whole cell assay, type 1 isoenzyme, in words ([3]; whole cell assay): active
IC50 [4]: 4 µM
inhibition at 100 µM [4, 9]: 99%
inhibition at 100 µM [4, 7]: 99%
IC50 ([4]; read-out: HRED1 IC50, cell free assay, Table 4 quinones): 4 µM

SMILES: COc1ccc(-c2coc3cc(O)cc(O)c3c2=O)cc1 [Biochanin a]
inhibitory activity in the whole cell assay, type 2 isoenzyme, in words [1]: significant inhibitory activity
HRED2 % Inhibition @ 100 μM [1]: 93%
IC50 [1]: 5 µM
HRED2 % Inhibition @ 100 uM [2, 10]: 74%
IC50 ([2]; cell free assay, Table 1 flavanoids, read-out: HRED2 IC50): 17 µM
inhibitory activity against type 2 isoenzyme, in words ([2]; cell-free assay): effective inhibitors
HRED1 % Inhibition @ 100 μM ([3]; whole cell assay, Table 7): 64%
IC50 [3, 5]: 64 µM
HRED1 % Inhibition @ 100 uM [4, 10]: 50%
IC50 ([4]; cell free assay, Table 1 flavanoids, read-out: HRED1 IC50): > 100 µM

SMILES: Oc1ccccc1O [Catechol]
inhibition at 100 µM [1]: 3%
IC50 [1]: > 100 µM
IC50 [2, 11]: > 100 µM
inhibition at 100 µM [2, 8]: 0%
inhibition at 100 µM ([3]; whole cell assay, Table 7): 9%
IC50 [3, 5]: > 100 µM
IC50 [4, 12]: > 100 µM
inhibition at 100 µM [4, 9]: 5%

SMILES: O=c1c(-c2ccc(O)cc2)coc2cc(O)ccc12 [Daidzein]
inhibitory activity in the whole cell assay, type 2 isoenzyme, in words [1]: significant inhibitory activity
inhibitory activity against type 2 isoenzyme, in words ([2]; cell-free assay): effective inhibitors
HRED1 % Inhibition @ 100 μM ([3]; whole cell assay, Table 7): 9%

Second part, the compound after the results:

inhibition at 100 µM [1]: 86%
IC50 [1]: 2 µM
inhibition at 100 µM ([2]; 100 μM, cell free assay, Table 6, read-out: HRED2 % Inhibition @ 100 μM): 81%
IC50 ([2]; cell-free assay, read-out: IC50, type 2 isoenzyme): 3 µM
inhibition at 100 µM ([3]; whole cell assay, Table 7): 67%
IC50 [3, 5]: 22 µM
inhibition at 100 µM ([4]; 100 μM, cell free assay, Table 6, read-out: HRED1 % Inhibition @ 100 μM): 97%
IC50 ([4]; cell-free assay, read-out: IC50, type 1 isoenzyme): 15 µM
SMILES: CCCCCC#CCC#CCC#CCC#CCCCC(=O)O [5,8,11,14-Eocpsatetraynoic Acid, 5,8,11,14-eicosatetraynoic acid]

HRED2 % Inhibition @ 100 μM [1]: 18%
IC50 [1]: > 100 µM
HRED1 % Inhibition @ 100 μM ([3]; whole cell assay, Table 7): 24%
IC50 [3, 5]: > 100 µM
SMILES: CC/C=C\C/C=C\C/C=C\CCCCCCCC(=O)OC [Alpha-Linolenic Acid Me Ester]

IC50 [1]: 7 µM
IC50 [2, 11]: > 100 µM
inhibitory activity in the whole cell assay, type 1 isoenzyme, in words ([3]; whole cell assay): active
IC50 [3, 5]: 8 µM
IC50 [4, 12]: 26 µM
SMILES: O=C(/C=C/c1ccc(O)c(O)c1)OCCc1ccccc1 [Caffeic Acid Phenethyl Ester]

inhibitory activity against type 2 isoenzyme, in words ([2]; cell-free assay): very effective inhibitor
inhibition at 100 µM [2, 8]: 87%
inhibition at 100 µM ([3]; whole cell assay, Table 7): 99%
inhibition at 100 µM ([4]; 100 uM, cell free assay, Table 3, read-out: HRED1 % Inhibition @ 100 uM): 95%
inhibitory activity against type 1 isoenzyme, in words ([4]; cell-free assay): very effective inhibitor
SMILES: COc1cc(/C=C/C(=O)CC(=O)/C=C/c2ccc(O)c(OC)c2)ccc1O [Curcumin]

inhibition at 100 µM [1]: 98%
IC50 [1]: 7 µM
inhibition at 100 µM ([2]; 100 uM, cell free assay, Table 2, read-out: HRED2 % Inhibition @ 100 uM): 36%
IC50 [2, 11]: > 100 µM
inhibition at 100 µM ([3]; whole cell assay, Table 7): 99%
inhibitory activity in the whole cell assay, type 1 isoenzyme, in words ([3]; whole cell assay): active
IC50 [3, 5]: 3 µM
inhibition at 100 µM ([4]; 100 uM, cell free assay, Table 2, read-out: HRED1 % Inhibition @ 100 uM): 88%
IC50 [4, 12]: 43 µM
SMILES: CCCCCCCCCCCCOC(=O)c1cc(O)c(O)c(O)c1 [Dodecylgallate]
